We go through 18 substances from ChEMBL document CHEMBL1671771, “Bismuth heterocycles based on a diphenyl sulfone scaffold: synthesis and substituent effect on the antifungal activity against Saccharomyces cerevisiae” (Eur J Med Chem, 2011).

The test relates to Saccharomyces cerevisiae. The experiment in a line: Antifungal activity against Saccharomyces cerevisiae W303-1A at 30 mM after 48 hrs. The class given is functional, organism-based.
For “10-(4-Nitrobenzoyloxy)phenothiabismine 5,5-dioxide”, the inhibition zone (IZ) turned out to be 17 mm.
Substance “10-Chloro-2-dimethylaminophenothiabismine 5,5-dioxide” showed an inhibition zone (IZ) of 7 mm.
In turn, “10-(Pyrrolidinedithiocarbamoyl)phenothiabismine 5,5-dioxide” came in with an inhibition zone (IZ) of 0 mm.
Substance “10-Chloro-2-trifluoromethylphenothiabismine 5,5-dioxide” had an inhibition zone (IZ) of 11 mm.
On to “10-Chloro-2-methoxyphenothiabismine 5,5-dioxide”, for which the inhibition zone (IZ) came out at 11 mm.
With “4,10-Dichlorophenothiabismine 5,5-dioxide” the figure was 10 mm.
With “10-chlorobenzo[b][1,4]benzothiabismine 5,5-dioxide”, the inhibition zone (IZ) worked out at 18 mm.
In the case of “2,8-Dihydroxy-10-chlorophenothiabismine 5,5-dioxide”, the inhibition zone (IZ) turned out to be 8 mm.
For “10-Chloro-2-tert-butylphenothiabismine 5,5-dioxide” the value was 0 mm; for “tert-butyl-[2-[tert-butyl(dimethyl)silyl]oxy-10-chloro-5,5-dioxo-benzo[b][1,4]benzothiabismin-8-yl]oxy-dimethyl-silane”, 0 mm; for “10-Chloro-3-methylphenothiabismine 5,5-dioxide”, 8 mm.
For “10-Chloro-2-fluorophenothiabismine 5,5-dioxide” the value was 17 mm; for “10-(4-Dimethylaminobenzoyloxy)phenothiabismine 5,5-dioxide”, 13 mm; for “1,10-Dichlorophenothiabismine 5,5-dioxide”, 13 mm.
For the substance “10-Chloro-2-phenylphenothiabismine 5,5-dioxide”, the inhibition zone (IZ) worked out at 0 mm.
Take “10-(N,N-Diethyldithiocarbamoyl)phenothiabismine 5,5-dioxide”: the inhibition zone (IZ) was 0 mm.
With “2,10-Dichlorophenothiabismine 5,5-dioxide” the figure was 13 mm; with “10-Chloro-2-methylphenothiabismine 5,5-dioxide”, 14 mm.
